From US20250034139A1, “AMINE COMPOUNDS HAVING ANTI-INFLAMMATORY, ANTIFUNGAL, ANTIPARASITIC, AND ANTICANCER ACTIVITY” (PHARMA CINQ, LLC, priority 2013, published 2025)
Values after ≈ are worked out from the molar mass of the structure shown. Structures can show the parent of a compound that is named as a salt.

Key:
[1] = system: 4T1 murine breast cancer cells; experiment: Example S: in vitro anticancer screen, 4T1 cells, Wst1; assay type: cell-based, mouse; conditions: Mus musculus, 4T1, 18 h, 18 hr, Wst1; for viability at 1 µM: read-out: 4T1 1 μM, percent of cancer cell survival relative to vehicle treated cells; for viability at 5 µM: read-out: 4T1 5 μM, percent of cancer cell survival relative to vehicle treated cells
How it was run: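 Read-out is Wst1 absorbance (450 nm, reference 630 nm) after roughly 2 hr dye incubation, giving percent cell survival versus vehicle. Before that, compounds at 1 μM or 5 μM were applied for 18 hr to 4T1 cells plated at 1×10^4 per well.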

[2] = system: PC-3 prostate cancer cells; experiment: Example T: sensitisation of PC-3 cells to doxorubicin, oxaliplatin, paclitaxel or vincristine, Wst1; assay type: cell-based, human; conditions: PC-3 cells, 72 hours; for Doxorubicin 3.5 μM: percent cell survival / Oxaliplatin 100 μM: percent cell survival / Paclitaxel 50 μM: percent cell survival / Vincristine 100 nM: percent cell survival: chemotherapy agent alone normalized to 100%; for viability at 0.4 µM: compound 0.4 μM alone; for viability at 2.5 µM: compound 2.5 μM alone
Trichophyton rubrum = experiment: Example J: Trichophyton rubrum growth inhibition, scoring by eye; assay type: cell-based; conditions: Trichophyton rubrum, 144 h; 6 days at 30° C., tested 6 to 40 μM; read-out: MIC, μM (maximum inhibition concentration, scoring by eye)
How it was run: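 Filtered T. rubrum suspension from PDA plates (grown 4 days, 30 °C) treated with diluted compounds in triplicate, incubated 6 days at 30 °C. Plates imaged; MIC scored by eye.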

THP-1 cells = experiment: Example C: compound screen, viable THP-1 cell count after 5 hours +/- LPS; assay type: cell-based, Human; conditions: for ability to inactivate pro-inflammatory THP-1 cells, in words (relative to benchmark AC): LPS-treated THP-1 cells
Excerpt: Background: THP-1 is a human acute myeloid leukemia (AML) cell line that can be induced into a macrophage-like cell with vitamin-D3 (vit-D3). In the macrophage, LPS (lipopolysaccharide; endotoxin) stimulation of toll-like receptor 4 (TLR-4) leads to NF-κB activation and secretion of inflammatory cytokines but also the priming of programmed death pathways through RIP and Caspase 8. The balance of this complex regulatory network is dependent on highly specific kinases, enzymes that require ATP. Disruption of either cytosolic pH or ATP availability/energy level uncouples this control network and the can macrophage shift away from production of inflammatory cytokines towards a programmed death event, which has the net effect of limiting inflammatory damage.

S. cerevisiae = experiment: Example I: Saccharomyces cerevisiae growth inhibition (OD 600 nm); assay type: cell-based; conditions: Saccharomyces cerevisiae, 18 hour incubation at 30° C., OD 600 nm, XLfit; for IC50: read-out: IC50, uM (50% inhibition of fungal growth); for MIC: read-out: MIC, uM (99% of inhibition of fungal growth)
[3] = Homo sapiens, Wst1, vehicle = 100, read-out: No Chemo: percent cell survival
[4] = compound 0.4 μM + doxorubicin 3.5 μM
[5] = compound 0.4 μM + oxaliplatin 100 μM
[6] = compound 0.4 μM + paclitaxel 50 μM
[7] = compound 0.4 μM + vincristine 100 nM
[8] = compound 2.5 μM + doxorubicin 3.5 μM
[9] = compound 2.5 μM + oxaliplatin 100 μM
[10] = compound 2.5 μM + paclitaxel 50 μM
[11] = compound 2.5 μM + vincristine 100 nM

Row | Compound | viability at 1 µM [1] [%] | viability at 5 µM [1] [%] | MIC (Trichophyton rubrum) [µM] | viability at 0.4 µM [2, 3] [%] | Doxorubicin 3.5 μM: percent cell survival [2, 4] [%] | Oxaliplatin 100 μM: percent cell survival [2, 5] [%] | Paclitaxel 50 μM: percent cell survival [2, 6] [%] | Vincristine 100 nM: percent cell survival [2, 7] [%] | IC50 (S. cerevisiae) [µM] | MIC (S. cerevisiae) [µM] | also measured
1 | CCCCCCOc1ccc(CNc2ccnc3ccccc23)cc1 [AA, N-[4-(Hexyloxy)benzyl]quinolin-4-amine] | 69.1 | 31.2 | – | – | – | – | – | – | – | – | viability at 1.5 µM ([2]; Homo sapiens, compound 1.5 μM alone, Wst1, vehicle = 100, read-out: No Chemo: percent cell survival): 82.6%; Doxorubicin 3.5 μM: percent cell survival ([2]; compound 1.5 μM + doxorubicin 3.5 μM): 38.6%; Oxaliplatin 100 μM: percent cell survival ([2]; compound 1.5 μM + oxaliplatin 100 μM): 31%; Paclitaxel 50 μM: percent cell survival ([2]; compound 1.5 μM + paclitaxel 50 μM): 22.2%; Vincristine 100 nM: percent cell survival ([2]; compound 1.5 μM + vincristine 100 nM): 43%
2 | c1ccc(Oc2cccc(CNc3ccnc4ccccc34)c2)cc1 [AF, N-(3-Phenoxybenzyl)quinolin-4-amine] | 24.7 | 25.6 | > 40 | 19.1 | 35 | 32.4 | 25.2 | 22.6 | – | – | Reduction in viable THP-1 cell count (percent change) from 0 hours, Mean ± SE (THP-1 cells; Compound (0.1 μM), No LPS): −8.99 ± 2.00%; Reduction in viable THP-1 cell count (percent change) from 0 hours, Mean ± SE (THP-1 cells; Compound (0.1 μM), Plus LPS): −27.32 ± 4.69%; Reduction in viable THP-1 cell count (percent change) from 0 hours, Mean ± SE (THP-1 cells; Compound (1.0 μM), No LPS): −6.02 ± 2.31%; Reduction in viable THP-1 cell count (percent change) from 0 hours, Mean ± SE (THP-1 cells; Compound (1.0 μM), Plus LPS): −44.82 ± 2.46%; ability to inactivate pro-inflammatory THP-1 cells, in words (relative to benchmark AC) (THP-1 cells): higher activity than the active benchmark compound AC
3 | CCCCCCOc1cccc(CNc2ncnc3ccccc23)c1 [AK, N-[3-(Hexyloxy)benzyl]quinazolin-4-amine] | – | – | 18 (≈ 6.04 µg/mL) | – | – | – | – | – | 23.5 | – | –
4 | CCCCCCOCCCCCCCCn1cnc2cnccc21 [AS, 1-[8-(Hexyloxy)octyl]-1H-imidazo[4,5-c]pyridine] | 94.6 | 23.1 | 25 (≈ 8.29 µg/mL) | – | – | – | – | – | 38.5 | 48.9 (≈ 16.2 µg/mL) | viability at 2.5 µM [2, 3]: 31.1%; Doxorubicin 3.5 μM: percent cell survival [2, 8]: 51.1%; Oxaliplatin 100 μM: percent cell survival [2, 9]: 55.5%; Paclitaxel 50 μM: percent cell survival [2, 10]: 36.8%; Vincristine 100 nM: percent cell survival [2, 11]: 30.8%
5 | CCCCOCCCCCCCCCCn1cnc2cnccc21 [AT, 1-(10-Butoxydecyl)-1H-imidazo[4,5-c]pyridine] | 31.7 | 18.7 | 6 (≈ 1.99 µg/mL) | 34.6 | 65.4 | 76.8 | 57.4 | 32.9 | – | – | –
6 | CCCCCCOCCCCCCCCNc1ccncn1 [AU, N-[8-(Hexyloxy)octyl]pyrimidin-4-amine] | 93 | 23.2 | 12 (≈ 3.69 µg/mL) | – | – | – | – | – | 18 | 24.3 (≈ 7.46 µg/mL) | viability at 2.5 µM [2, 3]: 32.4%; Doxorubicin 3.5 μM: percent cell survival [2, 8]: 25.7%; Oxaliplatin 100 μM: percent cell survival [2, 9]: 41.1%; Paclitaxel 50 μM: percent cell survival [2, 10]: 34.2%; Vincristine 100 nM: percent cell survival [2, 11]: 32%
7 | CCCCCCOCCCCCCCCNc1cc(C)nc2ccccc12 [AV, N-[8-(Hexyloxy)octyl]-2-methylquinolin-4-amine] | 136 | 30 | 25 (≈ 9.26 µg/mL) | – | – | – | – | – | 19.7 | 19.8 (≈ 7.32 µg/mL) | viability at 2.5 µM [2, 3]: 38.2%; Doxorubicin 3.5 μM: percent cell survival [2, 8]: 62.6%; Oxaliplatin 100 μM: percent cell survival [2, 9]: 59.3%; Paclitaxel 50 μM: percent cell survival [2, 10]: 34.4%; Vincristine 100 nM: percent cell survival [2, 11]: 37.2%
8 | CCCCCCOc1cccc(OCCCNc2ccnc3ccccc23)c1 [AZ, N-{3-[3-(Hexyloxy)phenoxy]propyl}quinolin-4-amine] | 52.2 | 29.1 | 18 (≈ 6.81 µg/mL) | 95.4 | 33.6 | 26.9 | 54.1 | 71.2 | 18.6 | 24.1 (≈ 9.11 µg/mL) | –
9 | Cc1cccc(OCCCCCCCCNc2ccnc3ccccc23)c1 [BE, N-[8-(m-Tolyloxy)octyl]quinolin-4-amine] | 23.1 | 18.7 | 12 (≈ 4.35 µg/mL) | 99.1 | 44.1 | 41.2 | 64 | 74.9 | 19.2 | 24.1 (≈ 8.75 µg/mL) | –
10 | Cc1ccc(OCCCCCCCCNc2ccnc3ccccc23)cc1 [BF, N-[8-(p-Tolyloxy)octyl]quinolin-4-amine] | 17.2 | 19 | 18 (≈ 6.53 µg/mL) | 92.8 | 40.9 | 37.2 | 57.1 | 74.1 | 20.8 | 32 (≈ 11.6 µg/mL) | –
11 | Cc1ccccc1OCCCCCCCCNc1ccnc2ccccc12 [BG, N-[8-(o-Tolyloxy)octyl]quinolin-4-amine] | 17.4 | 17.8 | 12 (≈ 4.35 µg/mL) | 99.1 | 40.1 | 36.2 | 59.2 | 71.1 | 9.88 | 11.8 (≈ 4.29 µg/mL) | –
12 | Fc1cccc(OCCCCCCCCNc2ccnc3ccccc23)c1 [BI, N-[8-(3-Fluorophenoxy)octyl]quinolin-4-amine] | 30 | 17.3 | 18 (≈ 6.6 µg/mL) | 111 | 76.6 | 84.3 | 71.7 | 81.7 | 28.6 | 47.1 (≈ 17.3 µg/mL) | –
13 | Fc1ccc(OCCCCCCCCNc2ccnc3ccccc23)cc1 [BJ, N-[8-(4-Fluorophenoxy)octyl]quinolin-4-amine] | 16.9 | 31.3 | 18 (≈ 6.6 µg/mL) | 23.9 | 56.8 | 64.1 | 50.2 | 50.8 | 21.4 | 37.8 (≈ 13.9 µg/mL) | –
14 | CCCCCCOc1ccc(CNc2ccnc3ccccc23)cc1F [BK, N-[3-Fluoro-4-(hexyloxy)benzyl]quinolin-4-amine] | – | – | – | 29.2 | 32.1 | 27.3 | 20.6 | 28.3 | 21.4 | 29.4 (≈ 10.4 µg/mL) | –
15 | c1ccc(Oc2cccc(CNc3ncnc4ccccc34)c2)cc1 [BM, N-(3-Phenoxybenzyl)quinazolin-4-amine] | – | – | 18 (≈ 5.89 µg/mL) | – | – | – | – | – | 30.6 | 50.5 (≈ 16.5 µg/mL) | Reduction in viable THP-1 cell count (percent change) from 0 hours, Mean ± SE (THP-1 cells; Compound (0.1 μM), No LPS): −3.96 ± 0.82%; Reduction in viable THP-1 cell count (percent change) from 0 hours, Mean ± SE (THP-1 cells; Compound (0.1 μM), Plus LPS): −25.80 ± 3.26%; Reduction in viable THP-1 cell count (percent change) from 0 hours, Mean ± SE (THP-1 cells; Compound (1.0 μM), No LPS): −4.18 ± 2.46%; Reduction in viable THP-1 cell count (percent change) from 0 hours, Mean ± SE (THP-1 cells; Compound (1.0 μM), Plus LPS): −39.17 ± 2.18%; ability to inactivate pro-inflammatory THP-1 cells, in words (relative to benchmark AC) (THP-1 cells): higher activity than the active benchmark compound AC
16 | CCCCCCOCCCCCCCC[n+]1ccc(N)cc1 [BO, 4-Amino-1-[8-(hexyloxy)octyl]pyridinium salts] | 20.7 | 18.6 | > 40 | 13.4 | 82.4 | 28.4 | 28.2 | 18.4 | – | – | –
